Measured values from US12280060B2, “Methods of treating cancer using neuronal activity inhibiting agents” (Washington University, priority 2021, dated 2025).
Entries after “also recorded” stand apart in the source; their conditions may differ.

What was measured:
neurofibromas = conditions: cited from earlier work
Nf1+/neo RGC neurons = assay type: cell-based, mouse
[1] = system: Nf1+/neo hippocampal neurons; assay type: cell-based, mouse
Nf1+/neo DRG neurons = assay type: cell-based, mouse
midkine [2] = assay type: cell-based, mouse
midkine [3] = assay type: cell-based, mouse; remark: listed apart in the source
Col1a2 [4] = assay type: cell-based, mouse
RAS = assay type: cell-based, mouse
[5] = system: Nf1+/neo and Nf1-OPG mice; experiment: In vivo treatment: Mdk/midkine, Nlgn3, Adam10 expression in retinae and optic nerves; design: species or system mouse; conditions: for effect on midkine expression in the RGC layer of retinae: 12-week-old Nf1-OPG mice, LTR or lovastatin in vivo; for effect on Nlgn3 RNA expression in vivo: retinae / optic nerves of Nf1+/neo or Nf1-OPG mice
Protocol: Supplementary Table 2) and TaqMan Fast Advanced Master Mix (Applied Biosystems) according to the manufacturer's instructions. All reactions were performed using the Bio-Rad CFX96 Real-Time PCR system equipped with Bio-Rad CFX Manager 3.1 software. Gene expression levels of technical replicates were estimated by ΔΔCt method using GAPDH or Gapdh (see e.g., TABLE 2) as reference genes. In total, 17 Nf1^flox/neo; GFAP-Cre (Nf1-OPG) mice were intraperitoneally administered vehicle (saline in 1% methylcellulose; n=9) or 25 mg/Kg body weight lamotrigine (Selleckchem; n=8) from four to six weeks of age, three times a week. The mice were then aged to 12 weeks for optic nerve and RGC analysis. […] The mice were analyzed at 12 weeks of age. […] These mice were analyzed at 24 weeks of age. […] These mice were analyzed at 12 weeks of age. For pNF analyses, Nf1^−/− DRG-NSCs were implanted in sciatic nerves of 8-week-old athymic nude mice as previously described. Briefly, the mice underwent surgery to create a pocket by displacing the quadriceps muscle and exposing their sciatic nerve. In all, 1×10^6 Nf1^−/− DRG-NSCs were implanted in the pocket around the sciatic nerve, such that the cells could be in direct contact with the nerve before the muscle and skin were sutured. Following recovery from the surgery, the mice were intraperitoneally administered vehicle (saline in 1% methylcellulose; n=5) or 25 mg/kg body weight lamotrigine (Selleckchem; n=5) three times a week for 6 weeks prior to histological analysis.

[6] = system: Nf1f/neo; hGFAP-Cre (Nf1-OPG) mice; experiment: In vivo Nf1-OPG (optic pathway glioma) progression; design: species or system mouse; conditions: for optic nerve proliferation (% Ki67+ cells), fold decrease: mouse, in vivo
[7] = system: NF1-pNFs in athymic nude mice; experiment: In vivo pNF progression (Nf1-/- DRG-NSCs implanted in sciatic nerve); design: species or system mouse
Midkine [8] = experiment: Mdk (Midkine transcript) levels in Nf1-mutant neurons; assay type: cell-based
Protocol: (§1) Nf1-mutant neurons were treated with the antiepileptic drug rufinamide. Treatment with rufinamide reduced Midkine expression (see e.g., FIG. 47) and neuronal excitability (see e.g., FIG. 48).

Nf1-mutant neurons = experiment: Excitability of Nf1-mutant neurons; assay type: cell-based
Protocol: as §1

[9] = system: human shNF1 Schwann cells; experiment: Human shNF1 Schwann cell proliferation (Ki67+); assay type: cell-based; conditions: shNF1 SCs
Nf1-/- DRG-NSCs = experiment: Nf1-/- DRG-NSC proliferation (Ki67+); assay type: cell-based, mouse
COL1A2 [10] = experiment: COL1A2 RNA expression in human shNF1 Schwann cells; assay type: cell-based; conditions: COL1A2 treatment
Col1a2 [11] = experiment: COL1A2 RNA expression in mouse Nf1-/- DRG-NSCs; assay type: cell-based; conditions: COL1A2 treatment
[12] = system: WT and Nf1+/1809 RGC neurons; assay type: cell-based, mouse
[13] = Nf1-OPG mice, LTR 25 mg/kg/day intraperitoneally, vs vehicle
[14] = Nf1-OPG mice, lamotrigine intraperitoneal, 3 months of age, vs vehicle
[15] = 25 mg/kg intraperitoneal three times a week for 6 weeks
[16] = 25 mg/kg intraperitoneal three times a week for 6 weeks, listed as LTR

Cc1ccc(=O)n(-c2ccccc2)c1 [Pirfenidone]
efficacy in human clinical trials (neurofibromas): no efficacy

NC1=N[C@H](O)[C@H]2[C@H]3O[C@]4(O)O[C@@H]([C@@H](O)[C@@]2(N1)[C@@H]4O)[C@]3(O)CO [TTX, tetrodotoxin]
effect on AP firing rate / RGC activity (Nf1+/neo RGC neurons): reduced | neuronal activity (AP firing rate), fold decrease (Nf1+/neo RGC neurons): > 80 fold | effect on AP firing rates [1]: reduced | effect on DRG neuron AP firing rate / neuronal activity (Nf1+/neo DRG neurons): reduce | effect on midkine secretion / expression (midkine [2]): reduced | midkine levels, fold decrease (midkine [2]): 1.9 fold | effect on midkine expression / secretion (midkine [3]): reduced | Col1a2 secretion / expression, fold reduction (Col1a2 [4]): 3.6 fold | reduction of Col1a2 secretion (Col1a2 [4]): 73% | effect on RAS activity (RAS-GTP) (RAS): reduced

Nc1nnc(-c2cccc(Cl)c2Cl)c(N)n1 [lamotrigine]
effect on AP firing rate / RGC activity (Nf1+/neo RGC neurons): reduced | firing rates, % decrease (Nf1+/neo RGC neurons): > 80% | effect on AP firing rates [1]: reduced | effect on DRG neuron AP firing rate / neuronal activity (Nf1+/neo DRG neurons): reduce | effect on midkine secretion / expression (midkine [2]): reduced | midkine levels, fold decrease (midkine [2]): 2.2 fold | effect on midkine expression / secretion (midkine [3]): reduced | Col1a2 secretion / expression, fold reduction (Col1a2 [4]): 1.8 fold | reduction of Col1a2 secretion (Col1a2 [4]): 47% | effect on RAS activity (RAS-GTP) (RAS): reduced | effect on midkine expression in the RGC layer of retinae [5]: reduced | effect on Mdk transcript relative expression in retinae ([5]; Nf1+/neo mice, LTR in vivo): decreased | Mdk RNA and protein levels in retinae, fold decrease ([5]; Nf1+/neo retinae, lamotrigine in vivo, relative to vehicle): 1.9-2.3 fold | Mdk levels in optic nerves, fold decrease ([5]; optic nerves, lamotrigine in vivo, relative to vehicle): 1.7-2 fold | effect on Adam10 RNA expression in vivo ([5]; retinae / optic nerves of 12 week-old Nf1+/neo or Nf1-OPG mice, lamotrigine in vivo): did not change; also recorded: unchanged | effect on Nlgn3 RNA expression in vivo ([5]; lamotrigine in vivo): did not change | effect on Nlgn3 RNA expression in vivo ([5]; lamotrigine in vivo, listed as LTR): unaltered | effect on CD3+ cells in optic nerves [6, 13]: reduced | effect on Iba1+ cells in optic nerves [6, 13]: reduced | effect on Ki67+ cells in optic nerves [6, 13]: reduced | effect on OPG development ([6]; Nf1-OPG mice, at 3 months of age): reduced | effect on optic nerve volumes ([6]; Nf1-OPG mice, lamotrigine intraperitoneal, 3 months of age): did not decrease | T-cell (CD3+ cells) content, fold decrease [6, 14]: 1.6 fold | microglia (% Iba1+ cells) content, fold decrease [6, 14]: 1.7 fold | optic nerve volumes relative to WT controls, fold increased ([6]; lamotrigine-treated Nf1-OPG mice): 1.5 fold | optic nerve proliferation (% Ki67+ cells), fold decrease [6]: 1.5 fold | optic nerve proliferation (% Ki67+ cells), fold decrease ([6]; ip): 5.7 fold | optic nerve proliferation (% Ki67+ cells), fold decrease ([6]; po, 10 mg/kg/day): 4 fold | microglia (% Iba1+ cells) content, fold decrease ([6]; treatment from 4-8 weeks, 6 month-old Nf1-OPG mice, vs vehicle): 1.4 fold | effect on Col1a2 production / immunoreactivity within the tumors [7, 15]: reduced | effect on neuronal histology (H&E) [7, 15]: partly restored | effect on pNF progression in vivo [7, 15]: decreases | effect on pNF size [7, 15]: reduced | effect on Col1a2 production / immunoreactivity within the tumors [7, 16]: decreases | effect on neuronal histology (H&E) [7, 16]: partly restores | effect on pNF size [7, 16]: reduces | effect on proliferation (Ki67+ cells) within the tumors ([7]; mouse, in vivo): reduces

CC[C@H](C)C(=O)O[C@H]1C[C@@H](C)C=C2C=C[C@H](C)[C@H](CC[C@@H]3C[C@@H](O)CC(=O)O3)[C@H]21 [lovastatin]
effect on midkine expression in the RGC layer of retinae [5]: decreased; also recorded: reduced

NC(=O)c1cn(Cc2c(F)cccc2F)nn1 [rufinamide]
effect on Mdk (Midkine transcript) levels / Midkine expression (Midkine [8]): reduces | effect on neuronal excitability (Nf1-mutant neurons): reduces

COL1A2: collagen-1A2; neurofibroma mitogen produced by peripheral neurons, applied to Schwann cells and DRG-NSCs
proliferation, fold increase in Ki67+ cells ([9]; COL1A2 12.5 μg/mL): 2.5-2.9 fold | proliferation, fold increase in Ki67+ cells (Nf1-/- DRG-NSCs; COL1A2 12.5 μg/mL): 2.5-2.9 fold | effect on COL1A2 RNA expression (COL1A2 [10]): increased | effect on COL1A2 RNA expression (Col1a2 [11]): increased

ZD7288
RGC neuron midkine production, fold increase (midkine [2]): 14-15 fold | effect on midkine production (midkine [2]): increased | effect on midkine expression / secretion (midkine [3]): increases | DRG Col1a2 secretion, fold increase (Col1a2 [4]): 2-2.8 fold | effect on Col1a2 secretion (Col1a2 [4]): increases | effect on Adam10 transcript expression [12]: did not alter | effect on Nlgn3 transcript expression [12]: did not alter

collagenase
effect on the increase in proliferation conferred by NF1-mutant sensory neuron CM or COL1A2 ([9]; collagenase): completely abrogated | effect on the increase in proliferation conferred by NF1-mutant sensory neuron CM or COL1A2 (Nf1-/- DRG-NSCs; collagenase): completely abrogated
